Source: PubChem BioAssay AID624344 (Sanford-Burnham Center for Chemical Genomics, 2012)
The source made the active and inactive calls. The rule behind the calls is not given here.

Legend:
[1] = inhibitors of PAF-induced NFkB signaling in CF airway cells, dose response, cell-based, uHTS hits, panel, cytotoxicity readout (AID 624344); details: CF bronchial epithelial cells, PAF-induced NFkB reporter inhibition; with PAF, mean of runs
[2] = test system: Cytotoxicity; experiment: as above; details: CF bronchial epithelial cells, mean of runs

Compound | IC50 [1] | IC50 [2]
O=C(NCCc1ccccc1)c1coc(=O)c(Br)c1 | 4.91 µM | 11.5 µM
O=C1/C(=C/c2cccnc2)CCc2c1[nH]c1ccccc21 | 5.47 µM | 25.1 µM
CC(C)n1c(SCc2ccccc2F)nc2c1c(=O)n(C)c(=O)n2C | 7.01 µM | > 79 µM (inactive)
CCC1=Nc2cc(C(=O)NCc3ccco3)ccc2Sc2ccc(C)cc21 | 11.7 µM | 57.9 µM (inactive)
Cc1[nH]nc2c1-c1nc3ccccc3nc1C(C)(C)C2 | 10.4 µM | > 79 µM (inactive)
Cc1ccc(-n2nnnc2Sc2ccc(S(=O)(=O)NCCN(C)C)cc2[N+](=O)[O-])cc1 | 2.65 µM | 1.99 µM
Cn1c(Sc2ccc(Br)cc2)c(C=O)c2ccccc21 | 1.4 µM | 5.64 µM
CC1C(=O)N(Cc2cn(Cc3ccco3)nn2)CCS(=O)(=O)N1Cc1ccc(-c2ccccc2C(F)(F)F)cc1 (configuration not stated) | 14 µM | 57.4 µM (inactive)
COc1ccc(-c2cc(=O)oc3cc(O)ccc23)cc1 | 1.89 µM | 46.9 µM
COCc1cc(S(=O)c2ccc(Cl)cc2)nc(C)n1 (configuration not stated) | 3.13 µM | 22 µM
COc1ccc(-c2oc3ccc(-c4ccc5c(c4)OCO5)cc3c2C#CC2(O)CCCCC2)cc1 | 2.67 µM | 41.3 µM
CCOC(=O)Nc1ccc2c(c1)N(C(=O)CCN(CC)CC)c1ccccc1S2=O (configuration not stated) | 5.94 µM | 34.5 µM
CCOC(=O)COc1ccc2ccccc2c1/C=C/[N+](=O)[O-] | 8.1 µM | 4.6 µM
Fc1cccc(Cl)c1/C=N/Nc1c(Cl)cncc1Cl | 5.83 µM | 26.2 µM
C/C(=N/NC(=O)c1cccs1)c1ccc(NC(=O)COc2ccc(Cl)cc2)cc1 | inactive | 26.5 µM
COc1ccc(Oc2cc(NC(=O)c3nn(C)cc3[N+](=O)[O-])cc([N+](=O)[O-])c2)cc1 | 3.27 µM | 1.69 µM
Nc1ncc(-c2ccccc2)c(-c2ccc(O)cc2O)n1 | 4.01 µM | > 79 µM (inactive)
Fc1ccc(-n2cc(-c3ccccc3)c3c(N4CCOCC4)ncnc32)cc1 | 3.21 µM | 8.13 µM
C=CCOc1c(OC)cc(/C=N/Nc2cccc(C(=O)O)c2)c(Br)c1Br | 15.3 µM | 44.5 µM
COc1cccc(NC(=O)CN(C)CC(=O)Nc2ccc(C)c([N+](=O)[O-])c2)c1 | 6.21 µM | > 79 µM (inactive)
COc1ccccc1-n1nnnc1S(=O)(=O)Cc1ccc(Cl)cc1 | 1.28 µM | 2.44 µM

Compound | IC50 [1] | IC50 [2]
CN(C)c1ccnc2sc3c(=O)n(Cc4ccccc4)cnc3c12 | 1.27 µM | > 79 µM (inactive)
Cc1cccc(CS(=O)(=O)c2ncc(Cl)c(C(=O)NCc3ccccc3)n2)c1 | 2.47 µM | 2.27 µM
COc1cc(C2c3cc4c(cc3CC3COC(=O)C32)OCO4)cc(OC)c1O (configuration not stated) | > 79 µM (inactive) | > 79 µM (inactive)
Cc1ccc2c(c1)C(=O)C(=O)N2Cc1ccc(Br)cc1 | 19.1 µM | > 79 µM (inactive)
O=C(NCCN1CCN(c2ccccc2)CC1)c1cccc(Br)c1 | 18.9 µM | 57.4 µM (inactive)
Cc1nn(-c2ccccc2)c(N2CCCC2)c1/C=N/NC(=O)c1cc(-c2ccccc2)nc2ccccc12 | 5.62 µM | 58.7 µM (inactive)
COc1ccc(-c2nc(NC(=O)c3ccc(OCC(=O)Nc4ccc(F)cc4)c(OC)c3)sc2C)cc1 | 4.72 µM | 16.6 µM
CCOC(=O)Cc1nnc2c(Nc3ccc(Cl)cc3)nc3nonc3n12 | 3.23 µM | 1.72 µM
O=C1NCCc2c1[nH]c1c(Cl)ccc(Cl)c21 | 1.54 µM | 11 µM
Cc1cccc(Nc2ncnc3ccc(Br)cc23)c1 | 3.93 µM | 13.1 µM
Cc1ncc(CC(=O)n2cc(C(=O)c3cc(Cl)ccc3O)cn2)s1 | 7.56 µM | 44.5 µM
COc1ccc(C[C@H]2NC[C@H](O)[C@H]2OC(C)=O)cc1 | 0.155 µM | 0.799 µM
O=c1c(-c2c(O)cc(O)c3c2O[C@H](c2ccc(O)cc2)CC3)c(-c2ccc(O)cc2)oc2cc(O)cc(O)c12 | 1.44 µM | 5.44 µM
NC(=O)c1nsc(C(=O)N(c2ccccc2F)C(C(=O)NCc2ccc(F)cc2)c2ccc(O)cc2)c1N (configuration not stated) | 2.08 µM | 6.55 µM
Nc1nc(/C=C/c2cccnc2)nc(-c2ccccc2O)n1 | 4.73 µM | 6.48 µM
O=C(NCc1cccnc1)/C(=C\c1ccc(-c2cccc(Cl)c2)o1)S(=O)(=O)c1ccccc1 | 1.71 µM | 5.33 µM
O=C(N/N=C/c1ccccc1)c1[nH]c2ccc(Br)cc2c1-c1ccccc1 | 6.11 µM | 40.6 µM
C[C@H]1Cn2cnc(C(=O)Nc3cccc(Cl)c3)c2C(=O)N1 | 2.26 µM | 25.5 µM
FC(F)Sc1ccc(NC(=S)NCC2CCCCC2)cc1 | 5.53 µM | 7.18 µM
CCOc1ccc(CCN2C(=S)N([C@@H](CC(C)C)CN3CCCC3CN3C(=S)NC[C@@H]3CC(C)C)C[C@@H]2Cc2ccc(O)cc2)cc1 (some centres not stated) | 14.9 µM | 64.1 µM (inactive)
